Patent US11820728B2, “Carbonyl lipids and lipid nanoparticle formulations for delivery of nucleic acids” (Acuitas Therapeutics, Inc., priority 2017, dated 2023)

Key:
[1] = Determination of pKa of formulated lipids (TNS fluorescence assay in lipid nanoparticles); type: physicochemical; settings: lipid formulated in LNP, 47.5% cationic lipid/10% DSPC/40.8% Cholesterol/1.7% PEG lipid
Description: As described elsewhere, the pKa of formulated lipids is correlated with the effectiveness of LNPs for delivery of nucleic acids (see Jayaraman et al, Angewandte Chemie, International Edition (2012), 51(34), 8529-8533; Semple et al, Nature Biotechnology 28, 172-176 (2010)). The preferred range of pKa is ˜5 to ˜7. The pKa of each lipid was determined in lipid nanoparticles using an assay based on fluorescence of 2-(p-toluidino)-6-napthalene sulfonic acid (TNS). Lipid nanoparticles comprising novel lipid or structure (I) or (II)/DSPC/cholesterol/PEG-lipid (50/10/38.5/1.5 or 47.5:10:40.8:1.7 mol %) in PBS at a concentration of 0.4 mM total lipid are prepared using the in-line process as described in Example 1. TNS was prepared as a 100 μM stock solution in distilled water. Vesicles were diluted to 24 μM lipid in 2 mL of buffered solutions containing 10 mM HEPES, 10 mM MES, 10 mM ammonium acetate, and 130 mM NaCl, where the pH ranged from 2.5 to 11. An aliquot of the TNS solution was added to give a final concentration of 1 μM and following vortex mixing fluorescence intensity was measured at room temperature in a SLM Aminco Series 2 Luminescence Spectrophotometer using excitation and emission wavelengths of 321 nm and 445 nm. A sigmoidal best fit analysis was applied to the fluorescence data and the pKa was measured as the pH giving rise to half-maximal fluorescence intensity.
(§1) Tables 3 and 4 provide properties of representative compounds of structure (I) and (II), respectively, which were formulated using the following molar ratio: 47.5% cationic lipid/10% distearoylphosphatidylcholine (DSPC)/40.8% Cholesterol/1.7% PEG lipid (“PEG-DMA” 2-[2-(ω-methoxy(polyethyleneglycol2000)ethoxy]-N,N-ditetradecylacetamide). Relative activity was determined by measuring luciferase expression in the liver 4 hours following administration via tail vein injection as described in Example 1. The activity was compared at a dose of 0.3 and 1.0 mg mRNA/kg and expressed as ng luciferase/g liver measured 4 hours after administration, as described in Example 1.

[2] = tested on: luciferase expression in the liver; assay: Luciferase mRNA in vivo evaluation using lipid nanoparticle compositions; set-up: species or system mice; settings: tail vein injection, liver 4 hours after administration, LNP 47.5/10/40.8/1.7; for Liver Luc @ 0.3 mg/kg (ng luc/g liver): 0.3 mg mRNA/kg; for Liver Luc @ 1.0 mg/kg (ng luc/g liver): 1.0 mg mRNA/kg
Description: A lipid of structure (I) or (II), DSPC, cholesterol and PEG-lipid were solubilized in ethanol at a molar ratio of 50:10:38.5:1.5 or 47.5:10:40.8:1.7. Lipid nanoparticles (LNP) were prepared at a total lipid to mRNA weight ratio of approximately 10:1 to 30:1. Briefly, the mRNA was diluted to 0.2 mg/mL in 10 to 50 mM citrate buffer, pH 4. Syringe pumps were used to mix the ethanolic lipid solution with the mRNA aqueous solution at a ratio of about 1:5 to 1:3 (vol/vol) with total flow rates above 15 mL/min. The ethanol was then removed and the external buffer replaced with PBS by dialysis. Finally, the lipid nanoparticles were filtered through a 0.2 µm pore sterile filter.
Studies were performed in 6-8 week old female C57BL/6 mice (Charles River) 8-10 week old CD-1 (Harlan) mice (Charles River) according to guidelines established by an institutional animal care committee (ACC) and the Canadian Council on Animal Care (CCAC). Varying doses of mRNA-lipid nanoparticle were systemically administered by tail vein injection and animals euthanized at a specific time point (e.g., 4 hours) post-administration. Liver and spleen were collected in pre-weighed tubes, weights determined, immediately snap frozen in liquid nitrogen and stored at −80° C. until processing for analysis.
For liver, approximately 50 mg was dissected for analyses in a 2 mL FastPrep tubes (MP Biomedicals, Solon Ohio). ¼″ ceramic sphere (MP Biomedicals) was added to each tube and 500 μL of Glo Lysis Buffer—GLB (Promega, Madison WI) equilibrated to room temperature was added to liver tissue. Liver tissues were homogenized with the FastPrep24 instrument (MP Biomedicals) at 2×6.0 m/s for 15 seconds. Homogenate was incubated at room temperature for 5 minutes prior to a 1:4 dilution in GLB and assessed using SteadyGlo Luciferase assay system (Promega). Specifically, 50 μL of diluted tissue homogenate was reacted with 50 μL of SteadyGlo substrate, shaken for 10 seconds followed by 5 minute incubation and then quantitated using a CentroXS^3 LB 960 luminometer (Berthold Technologies, Germany). The amount of protein assayed was determined by using the BCA protein assay kit (Pierce, Rockford, IL). Relative luminescence units (RLU) were then normalized to total μg protein assayed. To convert RLU to ng luciferase a standard curve was generated with QuantiLum Recombinant Luciferase (Promega).
The FLuc mRNA (L-6107) from Trilink Biotechnologies will express a luciferase protein, originally isolated from the firefly, photinus pyralis. FLuc is commonly used in mammalian cell culture to measure both gene expression and cell viability. It emits bioluminescence in the presence of the substrate, luciferin. This capped and polyadenylated mRNA is fully substituted with 5-methylcytidine and pseudouridine.
as §1

SMILES	pKa ([1]; structure (I) compounds)	Liver Luc @ 0.3 mg/kg (ng luc/g liver) ([2]; structure (I) compounds)	Liver Luc @ 1.0 mg/kg (ng luc/g liver) ([2]; structure (I) compounds)	Liver Luc @ 0.3 mg/kg (ng luc/g liver) ([2]; structure (II) compounds)	Liver Luc @ 1.0 mg/kg (ng luc/g liver) ([2]; structure (II) compounds)	pKa ([1]; structure (II) compounds)
CCCCCCCCC(CCCCCC)COC(=O)CCCCCN(CCCCCC(=O)OCC(CCCCCC)CCCCCCCC)CCCCC(=O)O (stereo not shown) [Compound I-2]	5.57	–	–	–	–	–
CCCCCCCCNC(=O)CCCCN(CCCCCC(=O)OCC(CCCCCC)CCCCCCCC)CCCCCC(=O)OCC(CCCCCC)CCCCCCCC (stereo not shown) [Compound I-3]	5.99	139 ± 43 ng luc/g liver	1711 ± 507 ng luc/g liver	–	–	–
CCCCCCCCCN(CCO)C(=O)CCCCN(CCCCCC(=O)OCC(CCCCCC)CCCCCCCC)CCCCCC(=O)OCC(CCCCCC)CCCCCCCC (stereo not shown) [Compound I-6]	6.32	580 ± 209 ng luc/g liver	3290 ± 582 ng luc/g liver	–	–	–
CCCCCCCCC(CCCCCC)COC(=O)CCCCCCCN(CCCCCCCC(=O)OCC(CCCCCC)CCCCCCCC)CCCCC(=O)N(CC)CC (stereo not shown) [Compound I-11]	5.89	228 ± 101 ng luc/g liver	910 ± 454 ng luc/g liver	–	–	–
CCCCCCCCC(CCCCCC)COC(=O)CCCCCCCN(CCCCCCCC(=O)OCC(CCCCCC)CCCCCCCC)CCCCC(=O)N(CCCO)CCCCCCCC (stereo not shown) [Compound I-12]	6.01	413 ± 143 ng luc/g liver	4002 ± 1573 ng luc/g liver	–	–	–
CCCCCCCCC(CCCCCC)COC(=O)CCCCCN(CCCCCC(=O)OCC(CCCCCC)CCCCCCCC)CCCCNC(=O)CCCCCCC (stereo not shown) [II-4]	–	–	–	150 ± 59 ng luc/g liver	1405 ± 306 ng luc/g liver	5.95
CCCCCCCCC(CCCCCC)COC(=O)CCCCCCCN(CCCCCCCC(=O)OCC(CCCCCC)CCCCCCCC)CCCCN(C)C(C)=O (stereo not shown) [II-5]	–	–	–	146 ± 16 ng luc/g liver	695 ± 278 ng luc/g liver	6.8
CCCCCCCC(=O)N(C)CCCN(CCCCCC(=O)OCC(CCCC)CCCCCC)CCCCCC(=O)OCC(CCCC)CCCCCC (stereo not shown) [II-14]	–	–	–	128 ± 17 ng luc/g liver	827 ± 537 ng luc/g liver	5.63
CCCCCCCCC(CCCCCC)COC(=O)CCCCCN(CCCCCC(=O)OCC(CCCCCC)CCCCCCCC)CCCN(CCCO)C(=O)CCCCCCC (stereo not shown) [II-16]	–	–	–	93 ± 38 ng luc/g liver	1312 ± 569 ng luc/g liver	6.08
